# Data taken from patent US20020137929A1, “1 - (3-heterocyclylphenyl) isothiourea, -isourea, -guanidine and -amidine herbicidal agents” (Intellectual Property Department, BASF Aktiengesellschaft, priority 1998, published 2002).
# Assays:
# [1] = tested on: AMBEL (Ragweed, Common); test: Postemergence herbicidal evaluation; assay type: in vivo, Ambrosia artemisifolia; conditions: postemergence
# How it was run: (§1)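 Each compound, dispersed in an acetone/water mix (50/50) carrying 0.5% TWEEN 20, is nozzle-sprayed at 40 psi on approximately two-week-old seedlings at about 0.0156–0.500 kg/ha. Plants are assessed 4–5 weeks afterward on a 0–9 scale relative to control; duplicate tests are averaged.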
# [2] = tested on: CHEAL (Lambsquarters, Common); test: Postemergence herbicidal evaluation; assay type: in vivo, Chenopodium album; conditions: postemergence
# How it was run: as §1
# [3] = tested on: IPOHE (Morningglory, Ivyleaf); test: Postemergence herbicidal evaluation; assay type: in vivo, Ipomoea hederacea; conditions: postemergence
# How it was run: as §1
# [4] = tested on: ECHCG (Barnyardgrass); test: Postemergence herbicidal evaluation; assay type: in vivo, Echinochloa crus-galli; conditions: postemergence
# How it was run: as §1
# [5] = tested on: GLXMAW (Soybean, Williams); test: Postemergence herbicidal evaluation; assay type: in vivo, Glycine max, (L.) Merr. cv Williams; conditions: postemergence
# How it was run: as §1
# [6] = tested on: ORYSAT (Rice, Tebonnet); test: Postemergence herbicidal evaluation; assay type: in vivo, Oryza sativa, (L.) Tebonnet; conditions: postemergence
# How it was run: as §1
# [7] = tested on: TRZAWR (Wheat, Winter, cv Riband); test: Postemergence herbicidal evaluation; assay type: in vivo, Triticum aestivum; conditions: postemergence
# How it was run: as §1
# [8] = tested on: ZEAMX (Corn, Field); test: Postemergence herbicidal evaluation; assay type: in vivo, Zea mays; conditions: postemergence
# How it was run: as §1
# [9] = tested on: CASOB (Sicklepod); test: Preemergence herbicidal evaluation; assay type: in vivo, Cassia obtusifolia; conditions: rated 4-5 weeks after treatment
# How it was run: (§2)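 In this greenhouse assay, monocot and dicot seeds are planted in soil and treated prior to emergence with an aqueous acetone spray (about 0.0156-0.500 kg/ha). Plants are assessed visually against control on a 0-9 scale after 4-5 weeks.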
# [10] = tested on: CHEAL (Lambsquarters, Common); test: Preemergence herbicidal evaluation; assay type: in vivo, Chenopodium album; conditions: rated 4-5 weeks after treatment
# How it was run: as §2
# [11] = tested on: IPOHE (Morningglory, Ivyleaf); test: Preemergence herbicidal evaluation; assay type: in vivo, Ipomoea hederacea; conditions: rated 4-5 weeks after treatment
# How it was run: as §2
# [12] = tested on: SETVI (Foxtail, Green); test: Preemergence herbicidal evaluation; assay type: in vivo, Setaria viridis; conditions: rated 4-5 weeks after treatment
# How it was run: as §2
# [13] = tested on: ORYSAT (Rice, Tebonnet); test: Preemergence herbicidal evaluation; assay type: in vivo, Oryza sativa, (L.) Tebonnet; conditions: rated 4-5 weeks after treatment
# How it was run: as §2
# [14] = tested on: ZEAMX (Corn, Field); test: Preemergence herbicidal evaluation; assay type: in vivo, Zea mays; conditions: rated 4-5 weeks after treatment
# How it was run: as §2
# [15] = tested on: ECHORC (Watergrass (Calif.)); test: Preemergence weed control under flooded paddy conditions; assay type: in vivo, Echinochloa oryzoides; conditions: rated 3-4 weeks after treatment
# How it was run: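 Seeds or propagules sown in top 0.5 cm of silt loam soil, flooded 1.5 to 3 cm above surface throughout. Compound in 50/50 v/v aqueous/acetone pipetted into flood water at about 0.0313 to 0.500 kg/ha. Visual 0-9 rating versus control after three to four weeks in greenhouse.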
# [16] = tested on: CYPSE (Flatsedge); test: as above; assay type: in vivo, Cyperus serotinus; conditions: rated 3-4 weeks after treatment
# How it was run: (§3)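 Herbicidal effect is scored visually on a 0-9 scale against an untreated control, three to four weeks after compounds are pipetted into the flood water (1.5 to 3 cm deep) over seeds planted in silt loam at 0.5 cm depth. Rates: about 0.0313 to 0.500 kg/ha.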
# [17] = tested on: MOOVA (Monochoria); test: as above; assay type: in vivo, Monochoria vaginalis; conditions: rated 3-4 weeks after treatment
# How it was run: as §3
compound,measurement,setting,value
"C=CCN1C(=O)C(CC(=O)NS(=O)(=O)C(C)C)SC1=Nc1cc(-n2c(=O)cc(C(F)(F)F)n(C)c2=O)c(F)cc1Cl (centres unmarked) [Compound 118, 3-Allyl-2-{{2-chloro-5-[3,6-dihydro-3-methyl-2,6-dioxo-4-(trifluoromethyl)-1(2H)-pyrimidinyl]-4-fluorophenyl}imino}-N-(isopropylsulfonyl)-4-oxo-5-thiazolidineacetamide]",herbicidal rating AMBEL,[1]; rate 0.0158 kg/ha,0.0
same,herbicidal rating AMBEL,[1]; rate 0.0315 kg/ha,2.0
same,herbicidal rating AMBEL,[1]; rate 0.0630 kg/ha,2.0
same,herbicidal rating CHEAL,[2]; rate 0.0158 kg/ha,0.0
same,herbicidal rating CHEAL,[2]; rate 0.0315 kg/ha,0.0
same,herbicidal rating CHEAL,[2]; rate 0.0630 kg/ha,5.0
same,herbicidal rating IPOHE,[3]; rate 0.0158 kg/ha,1.0
same,herbicidal rating IPOHE,[3]; rate 0.0315 kg/ha,7.0
same,herbicidal rating IPOHE,[3]; rate 0.0630 kg/ha,9.0
same,herbicidal rating ECHCG,[4]; rate 0.0158 kg/ha,0.0
same,herbicidal rating ECHCG,[4]; rate 0.0315 kg/ha,1.0
same,herbicidal rating ECHCG,[4]; rate 0.0630 kg/ha,1.0
same,herbicidal rating GLXMAW,[5]; rate 0.0158 kg/ha,4.5
same,herbicidal rating GLXMAW,[5]; rate 0.0315 kg/ha,5.0
same,herbicidal rating GLXMAW,[5]; rate 0.0630 kg/ha,6.0
same,herbicidal rating ORYSAT,[6]; rate 0.0158 kg/ha,2.0
same,herbicidal rating ORYSAT,[6]; rate 0.0315 kg/ha,2.0
same,herbicidal rating ORYSAT,[6]; rate 0.0630 kg/ha,2.0
same,herbicidal rating TRZAWR,[7]; rate 0.0158 kg/ha,2.0
same,herbicidal rating TRZAWR,[7]; rate 0.0315 kg/ha,2.0
same,herbicidal rating TRZAWR,[7]; rate 0.0630 kg/ha,2.0
same,herbicidal rating ZEAMX,[8]; rate 0.0158 kg/ha,3.5
same,herbicidal rating ZEAMX,[8]; rate 0.0315 kg/ha,4.0
same,herbicidal rating ZEAMX,[8]; rate 0.0630 kg/ha,4.5
same,Preemergence herbicidal rating CASOB,[9]; rate 0.0625 kg/ha,0.0
same,Preemergence herbicidal rating CASOB,[9]; rate 0.2500 kg/ha,4.0
same,Preemergence herbicidal rating CHEAL,[10]; rate 0.0625 kg/ha,6.0
same,Preemergence herbicidal rating CHEAL,[10]; rate 0.1250 kg/ha,9.0
same,Preemergence herbicidal rating CHEAL,[10]; rate 0.2500 kg/ha,9.0
same,Preemergence herbicidal rating IPOHE,[11]; rate 0.0625 kg/ha,0.0
same,Preemergence herbicidal rating IPOHE,[11]; rate 0.1250 kg/ha,1.0
same,Preemergence herbicidal rating IPOHE,[11]; rate 0.2500 kg/ha,6.0
same,Preemergence herbicidal rating SETVI,[12]; rate 0.0625 kg/ha,0.0
same,Preemergence herbicidal rating SETVI,[12]; rate 0.1250 kg/ha,0.0
same,Preemergence herbicidal rating SETVI,[12]; rate 0.2500 kg/ha,2.0
same,Preemergence herbicidal rating ORYSAT,[13]; rate 0.0625 kg/ha,0.0
same,Preemergence herbicidal rating ORYSAT,[13]; rate 0.1250 kg/ha,0.0
same,Preemergence herbicidal rating ORYSAT,[13]; rate 0.2500 kg/ha,0.0
same,Preemergence herbicidal rating ZEAMX,[14]; rate 0.0625 kg/ha,0.0
same,Preemergence herbicidal rating ZEAMX,[14]; rate 0.1250 kg/ha,0.0
same,Preemergence herbicidal rating ZEAMX,[14]; rate 0.2500 kg/ha,0.0
same,"herbicidal effect rating, ECHORC",[15]; 0.0313 kg/ha,0.0
same,"herbicidal effect rating, ECHORC",[15]; 0.0625 kg/ha,0.0
same,"herbicidal effect rating, ECHORC",[15]; 0.1250 kg/ha,4.0
same,"herbicidal effect rating, ECHORC",[15]; 0.2500 kg/ha,6.0
same,"herbicidal effect rating, CYPSE",[16]; 0.0313 kg/ha,0.0
same,"herbicidal effect rating, CYPSE",[16]; 0.0625 kg/ha,0.0
same,"herbicidal effect rating, CYPSE",[16]; 0.1250 kg/ha,0.0
same,"herbicidal effect rating, CYPSE",[16]; 0.2500 kg/ha,0.0
same,"herbicidal effect rating, MOOVA",[17]; 0.0313 kg/ha,4.0
same,"herbicidal effect rating, MOOVA",[17]; 0.0625 kg/ha,4.0
same,"herbicidal effect rating, MOOVA",[17]; 0.1250 kg/ha,6.0
same,"herbicidal effect rating, MOOVA",[17]; 0.2500 kg/ha,7.0
